These are literature values, as cited in patent US6063383A, “Pharmaceutical suppository composites for fever and influenza and method of producing the composites” (priority 1999, dated 2000).

Usually IC50 stands for the concentration that inhibits the measured activity by half. The term pA2 denotes a measure of antagonist potency on a negative log scale. By LD50 is commonly meant the dose expected to kill half of the subjects tested.

The test system of data set [1] is twisting reaction of small rats caused by acetic acid. Conditions: into the stomach.
Data set [2] deals with blood capillary permeability. The conditions noted are these: into the stomach.
The subject of the next data set is nephrosis. The conditions noted are these: intra-abdominal.
The test system of data set [3] is heart separated from frogs, wister rats, or rabbits.
Data set [4] relates to heart failure; left ventricles.
The test system of data set [5] is small rats. The conditions noted are these: rat, in vivo.
In data set [6] the test system is liver injury caused by carbon tetrachloride.
Data set [7] has as its system post-synaptic GABA receptors.
For the next data set, the system named is blood platelets. Conditions: ADP, arachidonic acids and collagen.
For data set [8], the system named is TXA; prostate glandis (PGI).
Data set [9] deals with hemorrhagic heart failure.
The next data set relates to blood cholesterol. The conditions noted are these: in vivo.
Data set [10] has as its system small rats.
Another data set relates to sleeping time. Conditions: sub-threshold pento-barbital sodium.
In the next data set the test system is pain. Conditions: oral intake or injection.
Data set [11] has as its system essential hypertension and critical hypertension. The conditions noted are these: in vivo.
The next data set has as its system granuloma. Conditions: for anti-granulomatous action: cotton granulomatous method; for anti-osmosis: granulationimplantation.
Data set [12] deals with small rats. The source holds these as a separate data set.
Data set [13] has as its system smooth muscles of the gall bladder and the dilator in the opening of the bile duct.
[14] abbreviates: infusing to the stomach of small rats.

Entries after “also recorded” stand apart in the source; their conditions may differ. Like-named read-outs stand apart in the source and are kept apart here.

Consider `COc1cc(CC2(O)C(=O)OCC2Cc2ccc(OC)c(OC)c2)ccc1O` (single isomer, unassigned) [trachelogenin], for which, in the data set with colon, the IC50 is 1100 nM and the “antagonistic action on calcium” value is “noticeable antagonistic action on calcium”. Moreover, the effect on contraction entry with colon (high concentration of potassium) is recorded as “inhibitory effect on the contraction”. The pA2 in the data set with colon (rat, colon) was 6.60. Also, the ratio to verapamil entry in the data set with colon (versus verapamil) was “one-sixth”.

For `CCCCCC(O)CC` (stereo not drawn) [3-octanol], the inflammation action result in the data set with inflammation is “have inflammation action”.

For `CC1CCC(C(C)C)C(O)C1` (stereo not drawn) [Methol], the “inhibitory rate on twisting reaction” value in [1] is listed as 41.3%.

For `CC(C)=C1CC[C@@H](C)CC1=O` [Pulegone], in [2], the “inhibitory rate on abdominal osmosis” value was 39.8%.

`O=C1C[C@@H]2OCC=C3CN4CC[C@]56c7ccccc7N1[C@H]5[C@H]2[C@H]3C[C@H]46` [Strychnine, reference compound]: the antagonism of pyrexia entry in the data set on hypothalamus (rat, in vivo) is recorded as “can antagonize pyrexia”.

On to `COc1cc(C[C@H]2C(=O)OC[C@@H]2Cc2ccc(OC)c(OC)c2)ccc1O` [arctigenin], for which, in the data set with nephrosis, the “excretion of proteins in urine” value is on record as “can inhibit the increase in the excretion of proteins in urine” and the serum biochemical index result is “improve the serum biochemical index”.

With `C=CC1=C(C)/C(=C/c2[nH]c(Cc3[nH]c(/C=C4\NC(=O)C(C)=C4C=C)c(C)c3CCC(=O)O)c(CCC(=O)O)c2C)NC1=O` [bilirubin], the “contracting effect on aortic arteries” value with aortic arteries was “weaker contracting effect”. Moreover, in [3], the cardiac tonic effect entry was “cardiac tonic effect”.

In the case of `C[C@H](CCC(=O)O)[C@H]1CC[C@H]2[C@@H]3[C@H](O)C[C@@H]4C[C@H](O)CC[C@]4(C)[C@H]3C[C@H](O)[C@]12C` [calcium cholic acid], in the data set on hypertension (oral, 100 mg/kg), the “blood pressure lowering effect” value was “significant and long-lasting blood pressure lowering effect”; the “duration of hypotensive effect” value is “one”.

For `C[C@H](CCC(=O)O)[C@H]1CC[C@H]2[C@@H]3[C@H](O)C[C@@H]4C[C@H](O)CC[C@]4(C)[C@H]3C[C@H](O)[C@]12C` [cholic acid], the “contracting effect on aortic arteries” value in the data set with aortic arteries is on record as “contracting effect”. For the same compound, the cardiac tonic effect entry in data set [3] is “cardiac tonic effect”.

Turning to `COc1ccc([C@@H]2Sc3ccccc3N(CCN(C)C)C(=O)[C@@H]2OC(C)=O)cc1` [diltiazem, reference compound], in data set [4] (1 mg/kg), the “output of left ventricles” value is recorded as “the output of the left ventricles reduces”.

On to `CC(C)NCC(O)COc1cccc2ccccc12` (stereo not drawn) [propranolol, reference compound], for which the “output of left ventricles” value in [4] (1 mg/kg) is on record as “the output of the left ventricles reduces”.

Take `NCCS(=O)(=O)O` [taurine]: the effect on convulsion result in the data set with convulsion (pento-tetra-amine, cepharathin, carbon monoxide, aluminum oxide, 4-amino pyride, penicillin, oxygen, low calcium, sound, L-uric acid) was “inhibitory effect”. In addition, the “latency period of convulsion” value with convulsion (strychnine) is “can significantly extend the latency period”. For the same compound, the formation of thrombi entry with formation of thrombi is recorded as “noticeable inhibition on the formation of thrombi”. Besides, the pathological changes entry in the data set on small rats [5] is “no pathological changes are found”. In addition, in data set [6] (in vivo), the “protection for liver injury” value is listed as “protection for the liver injury” and the “rise of ALT” value is “inhibits the rise of ALT”. In addition, the “repairing of liver cells” value in data set [6] (pathological sectioning) was “can promote the repairing of liver cells and the prevention of lipohepatitis”. Moreover, in data set [7], the “affinity for post-synaptic GABA receptors” value is “no significant affinity”. The “replacement of GABA effects” value in data set [7] (central nervous system) is “cannot replace the inhibitory effect and modulating effect of GABA”. The “agglomeration of blood platelets” value in the data set on blood platelets is given as “dosage-dependence relationship; also recorded: inhibitory action on the agglomeration of blood platelets”. Also, the electrical activities entry in the data set with cerebral cortical nerves was “can inhibit both the spontaneous and induced electrical activities and produce hyperpolarization”. For the same compound, the “inhibitory effect on the spinal cord and brain stem with strychnine” value in the data set on cerebral cortical nerves (strychnine) is “antagonized by strychnine”. For the same compound, the “formation of PGI” value in the data set with TXA is “no noticeable effect”. In [8], the “formation of TXA by arachidonic acids” value is reported as “no effect on the formation of TXA by arachidonic acids” and the “formation of TXA by collagen” value is reported as “can inhibit the formation of TXA by collagen”. Further, the treatment effect result in [9] (6 g daily, four weeks) was “noticeable treatment effect”. The “action and metabolism of cardiac tonic” value in data set [9] (catecholamines and digitalis) was “does not affect the action and metabolism of cardiac tonic”. For the same compound, in the data set on blood cholesterol, the atherosclerosis result was “prevent atherosclerosis”, the blood cholesterol entry is “reduce blood cholesterol” and the high-density lipoproteins result is “increase high-density lipoproteins”. In addition, the LD50 in the data set on small rats [10] (intravenous) is 330 mg/kg. Also, in the data set with myocardia, the “effect on cell membrane” value is “stabilizing effect on the cell membrane”; the formation of glutathione result is listed as “increase the formation of glutathione”; the “myocardial blood deficiency and damage” value was “can significantly inhibit myocardial blood deficiency and damage”; the “myocardial injury by hyperpolarization of calcium” value is “antagonize the myocardial injury”. The oxygen free radicals result with myocardia is on record as “reduce the formation of oxygen free radicals; also recorded: increases the excretion of oxygen free radicals”. The hypnotizing action entry in the data set with sleeping time is on record as “increase the hypnotizing action”. Besides, the “effect on PGE1 and PGE2 mechanism” value in the data set with heat-induced pyrogenesis (E1 (PGE1) and E2 (PGE2)) is recorded as “so such effect occurs”. Besides, in the data set on heat-induced pyrogenesis (endotoxin and white blood cells, injection into the cerebral ventricles), the inhibition of pyrogenesis result was “can inhibit the heat-induced pyrogenesis of endotoxin and white blood cells”. Besides, the body temperature result in the data set with hypothalamus (injection into the hypothalamus) is “can increase the body temperature”. In addition, the body temperature entry with hypothalamus (large dosage) is listed as “can reduce the body temperature”. The hypotensive effect result in the data set on hypertension (essential or deoxy-cortisone acetate-induced hypertension) is on record as “hypotensive effect”. Further, in the data set with cardiac arrhythmias, the “effect on Ca^2+ in the myocardia” value is on record as “biphasic moderation” and the “prevention of cardiac arrhythmias” value is “can prevent cardiac arrhythmias”. The anti-arrhythmic effect entry in the data set on cardiac arrhythmias (used together with quinidina, small rats) is “better anti-arrhythmic effect”. Also, in data set [4] (after 1 mg/kg propranolol or diltiazem), the “output of left ventricles” value is listed as “can improve the output of left ventricles”. In addition, in data set [4] (long-term oral), the life expectancy entry was “extends the life expectancy of rabbits”. In data set [4] (long-term oral, incomplete opening and closing of aortic valves), the “prevention of heart failure” value was “can prevent the accelerated hemorrhagic heart failure”. Besides, in data set [4] (rabbit, in vivo), the “normal rate and final diastolic pressure of left ventricles” value was “does not affect the normal rate of rabbits and the final diastolic pressure of left ventricles”; the “output and systolic pressure of the left ventricles” value is “significantly increase the output and systolic pressure of the left ventricles”. Besides, in data set [4] (treatment group), the heart-failure mortality rate entry was “significantly reduces with a lower heart pulse”. Besides, the pain relief result in the data set on pain was “does not produce noticeable pain relief”. Also, in data set [11], the “effects in treating hypertension” value is reported as “satisfactory”.

Take `C=C1CCC2CC1C2(C)C` (stereo not drawn) [β-pipene]: the inflammation action entry with inflammation was “have inflammation action”.

Regarding bupleurum saponin-a, the “coughing-relieving action, dose relation” value in the data set on coughing (intra-abdominal, 100~200 mg/kg, wister rats, 200 mg/kg) is “most noticeable coughing-relieving action; also recorded: related to its dosage”. In addition, the “action of relieving coughing” value in the data set with coughing (rat, in vivo) is reported as “stronger action of relieving coughing”. In addition, in the data set on granuloma, the anti-granulomatous action entry is recorded as “anti-granulomatous action” and the anti-osmosis result is “anti-osmosis”. Also, the inhibition on over-activity entry in the data set on small rats [12] (mounting experiments, conditional aversion) was “noticeable inhibition on the over-activity”. Moreover, in the data set on small rats [12] (rat, in vivo), the tranquilizing effect entry is recorded as “significant tranquilizing effect”.

For bupleurum saponin-d, in the data set with granuloma, the anti-granulomatous action result is given as “anti-granulomatous action” and the anti-osmosis result is recorded as “anti-osmosis”.

Take chloretic acid: the LD50 in the data set on small rats [10] (setting [14]) was 1520 mg/kg.

For deoxy-chloretic acid, the values for the LD50 in the data set on small rats [10] (setting [14]) and with small rats [10] (intravenous) were 1060 mg/kg and 150 mg/kg, respectively. In addition, in data set [13], the “effect on bile duct / excretion of bile” value is given as “can relax the dilators of the bile duct”.
